# Assay results from patent US8637484B2, “Modulation of growth hormone receptor expression and insulin-like growth factor expression” (Antisense Therapeutic Limited, priority 2003, dated 2014).
# In the oligonucleotide strings, read from the 5' end, every base follows the letter of its sugar. An asterisk marks phosphorothioate; unmarked linkages are phosphodiester. Other units and linkages are bracketed, terminal groups are in braces. A string of capitals states the bases alone. e = 2'-O-(2-methoxyethyl) (MOE); [5mC] = 5-methylcytosine; d = 2'-deoxy (DNA)
# System: mouse growth hormone receptor mRNA
# Experiment: Inhibition of mouse growth hormone receptor mRNA levels in b.END cells, quantitative real-time PCR
# Type: cell-based
# Parameters: % INHIB: concentration or dose not given beside the values
# Settings: dose-response studies
# Method: The mouse brain endothelial cell line b.END was obtained from Dr. Werner Risau at the Max Plank Instititute (Bad Nauheim, Germany). b.END cells were routinely cultured in DMEM, high glucose (Gibco/Life Technologies, Gaithersburg, Md.) supplemented with 10% fetal calf serum (Gibco/Life Technologies, Gaithersburg, Md.). Cells were routinely passaged by trypsinization and dilution when they reached 90% confluence. Cells were seeded into 96-well plates (Falcon-Primaria #3872) at a density of 3000 cells/well for use in RT-PCR analysis.
# When cells reached 65-75% confluency, they were treated with oligonucleotide. For cells grown in 96-well plates, wells were washed once with 100 μL OPTI-MEM™-1 reduced-serum medium (Invitrogen Corporation, Carlsbad, Calif.) and then treated with 130 μL of OPTI-MEM™-1 containing 3.75 μg/mL LIPOFECTIN™ (Invitrogen Corporation, Carlsbad, Calif.) and the desired concentration of oligonucleotide. Cells are treated and data are obtained in triplicate. After 4-7 hours of treatment at 37° C., the medium was replaced with fresh medium. Cells were harvested 16-24 hours after oligonucleotide treatment.
# Total RNA was isolated using an RNEASY 96™ kit and buffers purchased from Qiagen Inc. (Valencia, Calif.) following the manufacturer's recommended procedures. Briefly, for cells grown on 96-well plates, growth medium was removed from the cells and each well was washed with 200 μL cold PBS. 150 μL Buffer RLT was added to each well and the plate vigorously agitated for 20 seconds. 150 μL of 70% ethanol was then added to each well and the contents mixed by pipetting three times up and down. The samples were then transferred to the RNEASY 96™ well plate attached to a QIAVAC™ manifold fitted with a waste collection tray and attached to a vacuum source. Vacuum was applied for 1 minute. 500 μL of Buffer RW1 was added to each well of the RNEASY 96™ plate and incubated for 15 minutes and the vacuum was again applied for 1 minute. An additional 500 μL of Buffer RW1 was added to each well of the RNEASY 96™ plate and the vacuum was applied for 2 minutes. 1 mL of Buffer RPE was then added to each well of the RNEASY 96™ plate and the vacuum applied for a period of 90 seconds. The Buffer RPE wash was then repeated and the vacuum was applied for an additional 3 minutes. The plate was then removed from the QIAVAC™ manifold and blotted dry on paper towels. The plate was then re-attached to the QIAVAC™ manifold fitted with a collection tube rack containing 1.2 mL collection tubes. RNA was then eluted by pipetting 140 μL of RNAse free water into each well, incubating 1 minute, and then applying the vacuum for 3 minutes.
# Quantitation of growth hormone receptor mRNA levels was accomplished by real-time quantitative PCR using the ABI PRISM™ 7600, 7700, or 7900 Sequence Detection System (PE-Applied Biosystems, Foster City, Calif.) according to manufacturer's instructions. This is a closed-tube, non-gel-based, fluorescence detection system which allows high-throughput quantitation of polymerase chain reaction (PCR) products in real-time. As opposed to standard PCR in which amplification products are quantitated after the PCR is completed, products in real-time quantitative PCR are quantitated as they accumulate. This is accomplished by including in the PCR reaction an oligonucleotide probe that anneals specifically between the forward and reverse PCR primers, and contains two fluorescent dyes. A reporter dye (e.g., FAM or JOE, obtained from either PE-Applied Biosystems, Foster City, Calif., Operon Technologies Inc., Alameda, Calif. or Integrated DNA Technologies Inc., Coralville, Iowa) is attached to the 5′ end of the probe and a quencher dye (e.g., TAMRA, obtained from either PE-Applied Biosystems, Foster City, Calif., Operon Technologies Inc., Alameda, Calif. or Integrated DNA Technologies Inc., Coralville, Iowa) is attached to the 3′ end of the probe. […]
row,Substance,IC50 [nM]
1,227507 (antisense eG*eT*e[5mC]*e[5mC]*eT*dT*dG*d[5mC]*dT*d[5mC]*d[5mC]*dA*dG*dG*dT*eT*eA*eG*e[5mC]*eA) [compound 227507],~12.5
2,227509 (antisense eG*e[5mC]*eA*eG*eT*dT*d[5mC]*dT*dA*dT*d[5mC]*dA*dG*dA*dA*e[5mC]*eT*eT*eT*eG) [compound 227509],~12.5

# Same assay, conditions: mouse growth hormone receptor mRNA, b.END cells, averages from three experiments
row,Substance,% INHIB [%]
1,227496 (antisense eG*e[5mC]*eA*eT*eT*d[5mC]*dA*dA*dT*dT*dT*d[5mC]*d[5mC]*dT*dG*eA*eA*e[5mC]*eT*eG) [compound 227496],51
2,227497 (antisense eT*eA*eA*eA*eT*dG*dT*dT*dT*dT*dG*d[5mC]*dA*dT*dA*eT*e[5mC]*e[5mC]*eA*eA) [compound 227497],77
3,227498 (antisense eT*eT*eG*eT*eA*dA*dA*dA*dA*dT*d[5mC]*dT*dA*dA*d[5mC]*eT*eT*eG*eT*eT) [compound 227498],49
4,227503 (antisense eT*eA*e[5mC]*e[5mC]*eT*dG*dA*dG*dA*d[5mC]*d[5mC]*d[5mC]*d[5mC]*dA*dG*eT*eT*e[5mC]*eA*eT) [compound 227503],24
5,227504 (antisense eT*eA*e[5mC]*e[5mC]*eT*dG*dA*dG*dA*d[5mC]*d[5mC]*d[5mC]*d[5mC]*dG*d[5mC]*eG*e[5mC]*eA*eG*e[5mC]) [compound 227504],34
6,227505 (antisense eT*eA*e[5mC]*e[5mC]*eT*dG*dA*dG*dA*d[5mC]*d[5mC]*d[5mC]*dA*d[5mC]*dA*eA*eG*e[5mC]*eG*eG) [compound 227505],39
7,227506 (antisense e[5mC]*e[5mC]*eT*e[5mC]*e[5mC]*dA*dG*dT*dA*d[5mC]*d[5mC]*dT*d[5mC]*dG*dG*eA*eG*eT*eT*eT) [compound 227506],69
8,227507 (antisense eG*eT*e[5mC]*e[5mC]*eT*dT*dG*d[5mC]*dT*d[5mC]*d[5mC]*dA*dG*dG*dT*eT*eA*eG*e[5mC]*eA) [compound 227507],89
9,227508 (antisense eT*eT*e[5mC]*e[5mC]*eA*d[5mC]*dT*d[5mC]*dA*d[5mC]*d[5mC]*d[5mC]*d[5mC]*dA*dG*eT*eT*e[5mC]*eA*eT) [compound 227508],51
10,227509 (antisense eG*e[5mC]*eA*eG*eT*dT*d[5mC]*dT*dA*dT*d[5mC]*dA*dG*dA*dA*e[5mC]*eT*eT*eT*eG) [compound 227509],82
11,227510 (antisense e[5mC]*eT*e[5mC]*e[5mC]*eA*dG*dA*d[5mC]*dG*dT*dG*dA*d[5mC]*d[5mC]*d[5mC]*eG*eA*e[5mC]*eT*e[5mC]) [compound 227510],64
12,227511 (antisense e[5mC]*e[5mC]*eA*e[5mC]*eG*d[5mC]*dA*d[5mC]*d[5mC]*d[5mC]*dA*d[5mC]*dA*dA*dG*e[5mC]*eG*eG*eA*eT) [compound 227511],71
13,227512 (antisense eT*eA*eA*e[5mC]*e[5mC]*dT*dA*dT*dG*dG*dT*dG*dA*d[5mC]*dT*eA*eT*eG*eT*e[5mC]) [compound 227512],36
14,227513 (antisense eT*eA*e[5mC]*e[5mC]*eT*dG*dA*dG*dA*d[5mC]*d[5mC]*dT*dG*d[5mC]*dA*eA*eG*eA*e[5mC]*eA) [compound 227513],40
15,227514 (antisense eA*eT*eG*e[5mC]*eT*d[5mC]*dA*d[5mC]*dG*dT*d[5mC]*dA*dG*d[5mC]*dT*eA*eT*eT*eG*eG) [compound 227514],43
16,227515 (antisense eA*eA*eA*eT*eT*d[5mC]*dT*dT*dA*d[5mC]*dT*dT*dG*dT*d[5mC]*e[5mC]*e[5mC]*e[5mC]*eA*eG) [compound 227515],37
17,227516 (antisense eT*eT*eG*eG*e[5mC]*dT*dT*dT*d[5mC]*d[5mC]*d[5mC]*dT*dG*dG*dA*eG*eG*eT*eT*e[5mC]) [compound 227516],57
18,227517 (antisense e[5mC]*eT*eT*e[5mC]*eA*d[5mC]*dT*dA*dA*d[5mC]*d[5mC]*dT*dT*dG*d[5mC]*eA*eG*e[5mC]*eT*eT) [compound 227517],63
19,227518 (antisense e[5mC]*eA*e[5mC]*eG*eG*d[5mC]*dT*dT*dA*d[5mC]*d[5mC]*dT*dA*dT*dT*eT*e[5mC]*eG*eT*e[5mC]) [compound 227518],6
20,227519 (antisense eT*e[5mC]*eA*e[5mC]*eA*d[5mC]*d[5mC]*dT*dA*d[5mC]*d[5mC]*dT*dT*dT*dG*e[5mC]*eT*eG*e[5mC]*eT) [compound 227519],44
21,227520 (antisense e[5mC]*eA*eT*e[5mC]*eT*dT*dA*dA*dT*d[5mC]*d[5mC]*dT*dT*dG*dG*eA*eA*eA*e[5mC]*eA) [compound 227520],42

# System: serum IGF-I
# Experiment: Serum IGF-I, additional 1 week study in mice
# Type: in vivo, mouse
# Settings: 50 mg/kg once every 2 days, day 7
# Method: (§1) Male Balb/C(a) mice were prepared and grouped for analysis as in Example 18 above.
# Animals (n=10/group) were designated to the following treatment groups:
# (§2) Animals were treated and serum IGF-I levels were measured as in Example 18 above. Briefly, for the one-week study, mice were given a subcutaneous dose of saline every second day, and mismatch control or antisense with administration on days 0, 2, 4, 6. On day 7, the animals were anaesthetized with pentobarbital and non-fasting blood samples collected exactly 5 minutes later from the retrobulbar plexus through heparinized capillary tubes under light ether anesthesia. Serum IGF-I measurement was done by radioimmunoassay at day 7.
row,Substance,reduction of serum IGF-I relative to saline control [%]
1,"TTACCGTATGGTTCCTCACT (chemistry not given here) [ISIS 260120, unrelated negative control oligonucleotide, reference compound]",17

# System: growth hormone receptor mRNA
# Experiment: Growth hormone receptor mRNA levels in liver, additional 1 week study
# Type: in vivo, mouse
# Settings: 50 mg/kg, one-week study
# Method: as §1, §2
# Growth hormone receptor mRNA levels in liver tissue samples from treated and untreated mice in this one-week study were assayed. The growth hormone receptor antisense inhibitor ISIS 227446 reduced growth hormone receptor mRNA levels in liver after the one-week study by 72% at the 50 mg/kg dose, relative to saline control (p<0.0001). The 30 mg/kg dose of ISIS 227446 yielded a 50% decrease in growth hormone receptor mRNA (p<0.0001). The unrelated control oligonucleotide ISIS 260120, at 50 mg/kg, reduced growth hormone receptor mRNA levels by approximately 15% (p>0.05).
row,Substance,reduction of growth hormone receptor mRNA levels in liver relative to saline control
1,"TTACCGTATGGTTCCTCACT (chemistry not given here) [ISIS 260120, unrelated negative control oligonucleotide, reference compound]",approximately 15%

# System: serum IGF-I
# Experiment: Serum IGF-I, two-week mouse study
# Type: in vivo
# Settings: 30 mg/kg, 2 weeks
# Method: A two-week study was done in similar fashion to the one-week study in Example 18, this time using ISIS 227446 at doses of 3, 5, 10, 20 and 30 mg/kg. The mismatch control was given at the same doses. Mice were treated with antisense compound or saline every other day for 14 days.
# P-values were determined by t-test.
row,Substance,effect on serum IGF-I levels seen with the mismatch oligonucleotide
1,"TTACCGTATGGTTCCTCACT (chemistry not given here) [ISIS 260120, unrelated negative control oligonucleotide, reference compound]",not observed
